Earlier results on five molecules are cited in patent US20230110485A1, “MULTI-LAYER PARTICLES OF FUNCTIONAL INGREDIENTS AND METHODS OF MAKING THE SAME” (Nulixir Inc., priority 2021, published 2023).

The conditions of data set [1]: water and n-octanol; categorization at pH = 7 unless stated otherwise.

A word on the logP: it is a log measure of how a compound divides between an organic and an aqueous phase. In the case of `COc1cc2c(c(OC)c1OC)-c1c(cc3c(c1OC)OCO3)CC(C)C(C)C2` (single isomer, unassigned; (-)) [(-)-schisandrin B], in data set [1], the lipophilicity (logP) is recorded as around 4.

With `COc1cc(/C=C/c2ccccc2)oc(=O)c1` [5,6-dehydrokawain], in data set [1], the logP was around 2.9.

In the case of `O=CC=Cc1ccccc1` [Cinnamaldehyde], in the data set with many strains of fungi, the “inhibitory activity against fungi” value is listed as “strong inhibitory activity”.

For the molecule `COc1cc2c(c(OC)c1OC)-c1c(cc(OC)c(OC)c1OC)C[C@](C)(O)[C@@H](C)C2` [schisandrol A], in data set [1], the logP is around 3.4.

For (-)-schisandrin C, the logP in data set [1] is around 3.5.
